Assay results as given in ChEMBL document CHEMBL1128541 (J Med Chem, 1995).

Assays:
[1] = target: Phosphodiesterase 3 (Homo sapiens, UniProt Q14432+Q13370); experiment: Inhibition of human platelet Phosphodiesterase 3
[2] = target: Phosphodiesterase 1 (Bos taurus, UniProt Q01061+P14100); experiment: Inhibition of bovine aorta Phosphodiesterase 1; format: protein assay
[3] = target: Phosphodiesterase 4 (Rattus norvegicus, UniProt P14270+P14646+P14644+P54748); experiment: Inhibition of rat kidney Phosphodiesterase 4; format: protein assay
[4] = target: T1, cGMP-dependent 3',5'-cyclic phosphodiesterase (Rattus norvegicus, UniProt Q01062); experiment: Inhibition of rat brain Phosphodiesterase 2
T1 sequence (Q01062 whole entry): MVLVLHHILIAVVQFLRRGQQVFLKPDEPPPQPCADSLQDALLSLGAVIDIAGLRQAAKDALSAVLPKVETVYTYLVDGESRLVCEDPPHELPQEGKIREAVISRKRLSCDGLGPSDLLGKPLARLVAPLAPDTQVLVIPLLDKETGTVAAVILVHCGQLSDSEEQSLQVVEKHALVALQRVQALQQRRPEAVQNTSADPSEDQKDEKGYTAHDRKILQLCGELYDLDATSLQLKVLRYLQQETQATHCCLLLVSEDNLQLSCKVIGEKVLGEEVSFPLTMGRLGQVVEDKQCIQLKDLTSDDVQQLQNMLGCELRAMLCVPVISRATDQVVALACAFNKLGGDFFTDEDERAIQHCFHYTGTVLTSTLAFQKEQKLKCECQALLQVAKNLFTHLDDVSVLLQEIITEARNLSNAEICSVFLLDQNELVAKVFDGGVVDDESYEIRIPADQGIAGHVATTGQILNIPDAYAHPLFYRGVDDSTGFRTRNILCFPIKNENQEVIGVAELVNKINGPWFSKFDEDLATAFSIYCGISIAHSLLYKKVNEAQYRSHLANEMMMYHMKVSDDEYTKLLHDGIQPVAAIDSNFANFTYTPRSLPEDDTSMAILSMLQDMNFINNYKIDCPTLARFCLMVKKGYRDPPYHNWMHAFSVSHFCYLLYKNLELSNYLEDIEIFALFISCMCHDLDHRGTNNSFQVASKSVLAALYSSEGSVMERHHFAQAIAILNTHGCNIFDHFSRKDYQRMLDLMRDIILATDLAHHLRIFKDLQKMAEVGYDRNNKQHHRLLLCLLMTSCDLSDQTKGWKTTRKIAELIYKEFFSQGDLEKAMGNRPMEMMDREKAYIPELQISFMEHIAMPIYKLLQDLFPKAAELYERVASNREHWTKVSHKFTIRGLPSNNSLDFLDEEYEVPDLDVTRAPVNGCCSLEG

[5] = target: cGMP-specific 3',5'-cyclic phosphodiesterase (Homo sapiens, UniProt O76074); experiment: Inhibitory activity against phosphodiesterase 5 from human platelets
[6] = target: T2, Thromboxane-A synthase (Homo sapiens, UniProt P24557); experiment: In vitro inhibition of Thromboxane A2 synthase in human platelet
T2 sequence (P24557 whole entry): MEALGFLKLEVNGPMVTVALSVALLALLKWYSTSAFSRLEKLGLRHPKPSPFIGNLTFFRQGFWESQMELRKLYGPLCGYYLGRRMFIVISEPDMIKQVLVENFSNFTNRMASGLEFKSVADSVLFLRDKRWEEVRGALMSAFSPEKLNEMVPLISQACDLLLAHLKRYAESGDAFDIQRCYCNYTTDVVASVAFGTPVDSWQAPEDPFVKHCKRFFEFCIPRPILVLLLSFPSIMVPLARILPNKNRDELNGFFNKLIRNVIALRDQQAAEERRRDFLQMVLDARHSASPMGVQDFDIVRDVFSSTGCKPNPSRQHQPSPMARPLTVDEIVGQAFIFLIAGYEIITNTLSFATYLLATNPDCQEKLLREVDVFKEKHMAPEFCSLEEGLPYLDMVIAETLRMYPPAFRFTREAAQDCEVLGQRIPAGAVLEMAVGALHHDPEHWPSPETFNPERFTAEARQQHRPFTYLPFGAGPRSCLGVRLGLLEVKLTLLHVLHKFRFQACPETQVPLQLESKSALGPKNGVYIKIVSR

[7] = organism: Rattus norvegicus; experiment: In vitro inhibition of Thromboxane B2 production in A-23,187-Induced Rat Whole Blood; format: functional
[8] = organism: Rattus norvegicus; experiment: Ex vivo inhibition of Thromboxane B2 production in A-23,187-Induced Rat Whole Blood; format: functional
[9] = target: Cyclooxygenase (Homo sapiens, UniProt P35354+P23219); experiment: Inhibitory activity against Prostaglandin G/H synthase; format: protein assay
[10] = organism: Homo sapiens; experiment: In vitro inhibition of Thromboxane A2 synthesis in human platelet; format: functional

Row | Structure (SMILES) | IC50 [5] [nM] | also measured
1 | Cl.Cl.Clc1ccc2nc(-c3cccnc3)nc(NCc3ccccc3)c2c1 | 26 | IC50 [1]: > 50000 nM; IC50 [2]: > 50000 nM; IC50 [3]: > 50000 nM; IC50 [4]: > 50000 nM
2 | c1ccc(-c2nc(NC3CCCC3)c3ccccc3n2)cc1 | 2400 | –
3 | c1cncc(-c2nc(NCC3CC3)c3ccccc3n2)c1 | 4400 | –
4 | c1ccc(CNc2nc(-c3ccco3)nc3ccccc23)cc1 | 2500 | –
5 | c1ccc(CNc2nc(-c3cccs3)nc3ccccc23)cc1 | 720 | IC50 [1]: > 100000 nM; IC50 [2]: 13000 nM; IC50 [3]: 7600 nM; IC50 [4]: 21000 nM
6 | COC(=O)c1cccc(Nc2nc(-c3ccccc3)nc3ccccc23)c1 | 190 | –
7 | c1ccc(CNc2nc(C3CCCCC3)nc3ccccc23)cc1 | 11000 | –
8 | Clc1ccc2nc(-c3cccnc3)nc(NCc3ccco3)c2c1 | 120 | –
9 | c1ccc(-c2nc(Nc3cccnc3)c3ccccc3n2)cc1 | 13000 | –
10 | COC(=O)c1ccc(Nc2nc(-c3ccccc3)nc3ccccc23)cc1 | 860 | –
11 | Cl.Cl.O=[N+]([O-])c1ccc2nc(-c3cccnc3)nc(NCc3ccccc3)c2c1 | 10 | IC50 [1]: > 3000 nM; IC50 [2]: > 3000 nM; IC50 [3]: > 3000 nM; IC50 [4]: > 3000 nM
12 | COc1ccc2nc(-n3ccnc3)nc(NCc3ccccc3)c2c1.Cl.Cl | 16 | IC50 [1]: 2000 nM; IC50 [2]: 2800 nM; IC50 [3]: 3300 nM; IC50 [6]: 2500 nM; IC50 [7]: 830 nM; ED50 [8]: 2.6 mg/kg; IC50 [4]: > 3000 nM
13 | c1cncc(CNc2nc(-c3cccnc3)nc3ccccc23)c1 | 2800 | –
14 | c1ccc(CNc2nc(-n3ccnc3)nc3ccccc23)cc1 | 260 | IC50 [1]: 50000 nM; IC50 [2]: 14000 nM; IC50 [3]: 3100 nM; IC50 [6]: 220 nM; IC50 [7]: 1100 nM; ED50 [8]: 5.7 mg/kg; IC50 [4]: 25000 nM; IC50 [9]: 51000 nM
15 | Clc1cccc(Nc2nc(-c3ccccc3)nc3ccccc23)c1 | 1000 | –
16 | OCCCCCNc1nc(-c2ccccc2)nc2ccccc12 | 15000 | –
17 | c1ccc(Nc2nc(-c3cccs3)nc3ccccc23)cc1 | 2400 | –
18 | c1ccc(CCNc2nc(-c3cccnc3)nc3ccccc23)cc1 | 540 | –
19 | c1ccc(CNc2nc(-c3cccnc3)nc3ccccc23)cc1 | 450 | IC50 [1]: > 100000 nM; IC50 [2]: 21000 nM; IC50 [3]: 9000 nM; IC50 [6]: 5800 nM; IC50 [7]: > 10000 nM; ED50 [8]: > 30 mg/kg; IC50 [4]: 19000 nM; IC50 [9]: 50000 nM
20 | Cc1ccc2nc(-c3cccnc3)nc(NCc3ccccc3)c2c1 | 105 | –

Row | Structure (SMILES) | IC50 [5] [nM] | also measured
21 | O=[N+]([O-])c1ccc2nc(-n3ccnc3)nc(NCc3ccccc3)c2c1 | 2.6 | –
22 | Clc1cccc(CNc2nc(-c3ccccc3)nc3ccccc23)c1 | 800 | –
23 | CS(=O)(=O)c1ccc2nc(-n3ccnc3)nc(NCc3ccccc3)c2c1 | 110 | –
24 | c1csc(CNc2nc(-n3ccnc3)nc3ccccc23)c1 | 210 | –
25 | c1ccc(-c2nc(NCC3CCCO3)c3ccccc3n2)cc1 (stereo not given) | 8800 | –
26 | C(=C\c1nc(NCc2ccccc2)c2ccccc2n1)/c1ccccc1 | 1300 | –
27 | c1ccc(-c2nc(NCc3ccco3)c3ccccc3n2)cc1 | 4700 | –
28 | c1ccc(-c2nc(NCc3ccccn3)c3ccccc3n2)cc1 | 11000 | –
29 | CCOC(=O)CCCNc1nc(-c2ccccc2)nc2ccccc12 | 4300 | –
30 | c1ccc(CNc2nc(-c3ccncc3)nc3ccccc23)cc1 | 310 | IC50 [1]: > 100000 nM; IC50 [2]: 7000 nM; IC50 [3]: 7500 nM; IC50 [6]: 830 nM; IC50 [7]: 1800 nM; ED50 [8]: 11 mg/kg; IC50 [4]: 17000 nM; IC50 [9]: 14000 nM
31 | CN(c1ccccc1)c1nc(-c2ccccc2)nc2ccccc12 | 20000 | –
32 | Fc1ccc2c(NCc3ccccc3)nc(-c3cccnc3)nc2c1 | 480 | –
33 | Brc1ccc2nc(-n3ccnc3)nc(NCc3ccccc3)c2c1 | 2.3 | –
34 | c1ccc(CCNc2nc(-c3ccccc3)nc3ccccc23)cc1 | 1900 | –
35 | COc1cccc(Nc2nc(-c3ccccc3)nc3ccccc23)c1 | 760 | –
36 | CN(Cc1ccccc1)c1nc(-c2ccccc2)nc2ccccc12 | 14000 | –
37 | Fc1ccc2nc(-c3cccnc3)nc(NCc3ccccc3)c2c1 | 165 | –
38 | CCCOc1ccccc1-c1nc2[nH]nnc2c(=O)[nH]1 [ZAPRINAST] | – | IC50 [1]: 660000 nM; IC50 [2]: 68000 nM; IC50 [4]: 100000 nM
39 | O=[N+]([O-])c1cccc(Nc2nc(-c3ccccc3)nc3ccccc23)c1 | 420 | –
40 | COc1ccc2nc(-n3ccnc3)nc(NCc3ccco3)c2c1 | 72 | –

Row | Structure (SMILES) | IC50 [5] [nM] | also measured
41 | Clc1ccccc1CNc1nc(-c2ccccc2)nc2ccccc12 | 800 | –
42 | Clc1nc(NCc2ccccc2)c2ccccc2n1 | 4600 | –
43 | c1ccc(Nc2nc(-c3ccco3)nc3ccccc23)cc1 | 2300 | –
44 | O=C(O)/C=C/c1ccc(Cn2ccnc2)cc1 [OZAGREL] | – | IC50 [10]: 3300 nM
45 | Clc1ccc(CNc2nc(-c3ccccc3)nc3ccccc23)cc1 | 740 | –
46 | Clc1ccc(Nc2nc(-c3ccccc3)nc3ccccc23)cc1 | 2150 | –
47 | c1ccc(COc2nc(-c3ccccc3)nc3ccccc23)cc1 | 18500 | –
48 | c1ccc2c(NCC3CCCCC3)nc(-n3ccnc3)nc2c1 | 230 | –
49 | c1ccc(-c2nc(NCc3cccnc3)c3ccccc3n2)cc1 | 8600 | –
50 | c1ccc(CNc2nc(-c3ccccc3)nc3ccccc23)cc1 | 320 | IC50 [1]: > 100000 nM; IC50 [2]: 22500 nM; IC50 [3]: 8200 nM; IC50 [4]: 24000 nM
51 | CSc1ccc2nc(-n3ccnc3)nc(NCc3ccccc3)c2c1 | 14 | –
52 | Clc1ccccc1Nc1nc(-c2ccccc2)nc2ccccc12 | 5500 | –
53 | c1ccc(CCNc2nc(-n3ccnc3)nc3ccccc23)cc1 | 860 | –
54 | Cl.Cl.Clc1ccc2nc(-n3ccnc3)nc(NCc3ccccc3)c2c1 | – | IC50 [1]: > 3000 nM; IC50 [2]: > 3000 nM; IC50 [3]: > 3000 nM; IC50 [4]: > 3000 nM
55 | CN1CCN(c2nc(NCc3ccccc3)c3ccccc3n2)CC1 | 22000 | –
56 | c1coc(CNc2nc(-n3ccnc3)nc3ccccc23)c1 | 630 | –
57 | c1cncc(-c2nc(NCc3cccs3)c3ccccc3n2)c1 | 360 | –
58 | c1cncc(-c2nc(NCC3CCCO3)c3ccccc3n2)c1 (stereo not given) | 5000 | –
